The record followed here is ChEMBL document CHEMBL4043252, “Discovery and structure-based design of 4,6-diaminonicotinamides as potent and selective IRAK4 inhibitors” (Bioorg Med Chem Lett, 2017).

A short description of data set [1]: in vitro. Particulars: mouse, liver microsomes.
A short description of data set [2]: physchem. The conditions noted are these: PAMPA, pH 7.4.
The subject of data set [3] is Liver. Particulars: human, microsomes.

Structures are written as SMILES.

In turn, `CNC(=O)c1cnc(Nc2ccc(OC)c(F)c2)cc1N[C@@H](c1ccccc1)[C@H](O)CO` gave a share remaining at 10 min in data set [1] of 20%. The Papp in data set [2] amounted to 6.3 ×10⁻⁶ cm/s. In data set [3], this compound had a Stability of 80%.

Take `CNC(=O)c1cnc(Nc2ccc3ncsc3c2)cc1N[C@@H](c1ccccc1)[C@H](O)CO`: the share remaining at 10 min in data set [1] lay in the range of 21 to 31%. In data set [2], this compound returned a Papp of 1.9 ×10⁻⁶ cm/s. In addition, the Stability in data set [3] is listed as 90%.
